Experimental data as given in patent US11479578B2, “Protein purification and virus inactivation with alkyl glycosides” (priority 2017, dated 2022).
Read-outs that look alike come from different tables or passages of the source.

Assays:
[1] = test system: PRV (pseudorabies virus); assay type: cell-based
[2] = test system: VSV (Vesicular Stomatitis Virus); assay type: cell-based
[3] = molecular target: T1, rD′D3-FP (Homo sapiens, UniProt P02768+P04275)
T1 construct: made in house; host or cells: CHO cells

[4] = test system: VACV (Vaccinia virus); assay type: cell-based
[5] = test system: MuLV (murine leukemia virus); assay type: cell-based
[6] = test system: BVDV (bovine viral diarrhea virus); assay type: cell-based

T1 sequence (P04275+P02768 fused): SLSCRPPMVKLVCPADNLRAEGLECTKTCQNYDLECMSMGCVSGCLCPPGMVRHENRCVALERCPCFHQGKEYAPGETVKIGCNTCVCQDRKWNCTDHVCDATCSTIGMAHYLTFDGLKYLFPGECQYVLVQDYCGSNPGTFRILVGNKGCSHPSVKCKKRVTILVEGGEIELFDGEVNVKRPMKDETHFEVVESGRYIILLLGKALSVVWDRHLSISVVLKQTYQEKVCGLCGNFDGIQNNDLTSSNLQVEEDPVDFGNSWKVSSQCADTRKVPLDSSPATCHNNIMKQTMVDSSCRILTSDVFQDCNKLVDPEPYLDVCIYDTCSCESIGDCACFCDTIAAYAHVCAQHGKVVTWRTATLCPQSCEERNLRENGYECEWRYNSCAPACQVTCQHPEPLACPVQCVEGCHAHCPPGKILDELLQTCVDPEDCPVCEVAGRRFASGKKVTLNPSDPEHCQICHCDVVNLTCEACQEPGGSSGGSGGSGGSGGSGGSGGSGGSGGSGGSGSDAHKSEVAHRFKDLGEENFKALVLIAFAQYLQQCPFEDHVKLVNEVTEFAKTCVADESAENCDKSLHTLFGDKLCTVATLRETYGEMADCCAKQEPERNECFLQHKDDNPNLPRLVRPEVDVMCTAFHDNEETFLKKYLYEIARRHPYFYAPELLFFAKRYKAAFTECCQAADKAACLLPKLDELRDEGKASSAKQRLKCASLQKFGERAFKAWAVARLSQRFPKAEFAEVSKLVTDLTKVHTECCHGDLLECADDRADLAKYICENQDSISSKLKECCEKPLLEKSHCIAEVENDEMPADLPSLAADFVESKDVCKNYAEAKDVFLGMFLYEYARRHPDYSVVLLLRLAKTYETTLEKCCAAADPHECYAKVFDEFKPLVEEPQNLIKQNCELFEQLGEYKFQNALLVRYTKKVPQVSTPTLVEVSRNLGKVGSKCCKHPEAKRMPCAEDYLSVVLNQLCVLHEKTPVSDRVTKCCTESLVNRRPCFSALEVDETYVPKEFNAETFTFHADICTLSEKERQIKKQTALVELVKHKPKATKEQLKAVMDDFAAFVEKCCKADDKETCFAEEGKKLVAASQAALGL

CCCCCCCCCCCCO[C@@H]1O[C@H](CO)[C@@H](O[C@H]2O[C@H](CO)[C@@H](O)[C@H](O)[C@H]2O)[C@H](O)[C@H]1O [DDM, n-dodecyl-beta-D-maltoside]
PRV virus titre after treatment [1]: ≤4.2 | virus inactivation capacity (in words) [1]: effective

CCCCCCCCO[C@@H]1O[C@H](CO)[C@@H](O[C@H]2O[C@H](CO)[C@@H](O)[C@H](O)[C@H]2O)[C@H](O)[C@H]1O [OM, n-octyl-beta-D-maltoside]
virus inactivation capacity (in words) [1]: effective

CCCCCCCCCCO[C@@H]1O[C@H](CO)[C@@H](O)[C@H](O)[C@H]1O [DG, n-decyl-beta-D-glucopyranoside]
PRV virus titre after treatment [1]: ≤2.2 | virus inactivation capacity (in words) [1]: effective

CCCCCCCCCCO[C@@H]1O[C@H](CO)[C@@H](O[C@H]2O[C@H](CO)[C@@H](O)[C@H](O)[C@H]2O)[C@H](O)[C@H]1O [DM, n-decyl-beta-D-maltoside]
PRV virus titre after treatment [1]: ≤2.2 | virus inactivation capacity (in words) [1]: effective

CCCCCCCCCCCCO[C@@H]1O[C@H](CO)[C@@H](O)[C@H](O)[C@H]1O [DDG, n-dodecyl-beta-D-glucopyranoside]
PRV virus titre after treatment [1]: ≤2.2 | virus inactivation capacity (in words) [1]: effective

CCCCCCCCO[C@@H]1O[C@H](CO)[C@@H](O)[C@H](O)[C@H]1O [OG, n-octyl-beta-D-glucopyranoside]
VSV virus titre after treatment [2]: ≤1.5 | rD′D3-FP in the eluate fraction [3]: 83% | VACV inactivation (in words) [4]: completely inactivates VACV very fast | VACV virus titre after treatment [4]: ≤1.5 | LRV [1]: ≥6.3 log10 | time to complete PRV inactivation [1]: 60 min | virus inactivation capacity (in words) [1]: effective | PRV Load ([1]; 15 min): ≤1.2 log10 | PRV Load ([1]; 120 min): 6.7 log10 | LRV [5]: ≥4.2 log10 | MuLV virus titre after treatment [5]: ≤1.2 | time to complete MuLV inactivation [5]: ≤ 15 min | BVDV virus titre after treatment [6]: ≤1.2 | LRV [6]: ≥5.3 log10 | time to complete BVDV inactivation [6]: ≤ 15 min
